# Measurements reported in patent US10111428B2, “Nematocide containing lactonic ring and preparation method and application thereof” (priority 2015, dated 2018).
# Tested on: Nematode eggs
# Test: Plant pathogenic nematode inhibition test by dipping: nematode egg hatch inhibition (NY/T 1154.5-2006)
# Assay type: in vivo
# Settings: Test object: nematode eggs; dipping
# Protocol: A plant pathogenic nematode inhibition test is conducted by dipping with the compounds in Table 1; and by referring to NY/T 1154.5-2006 (Part 5: Dipping Test for Insecticide Ovicidal Activity), the nematode egg hatch inhibition activity of the compounds is tested, as shown in Table 2: […]
row,SMILES,LC50 [µg/mL]
1,O=C1CC(C(=O)OCCC(F)=C(F)F)C(c2ccc(Br)cc2F)O1 (stereo not shown) [Compound 25],13.91
2,Cc1ccc(C2OC(=O)CC2C(=O)OCCC=C(F)F)cc1 (stereo not shown) [Compound 3],10.01

# Same assay, conditions: in vivo
row,SMILES,LC50 [µg/mL]
1,O=C1CC(C(=O)OCCC(F)=C(F)F)C(c2cccc(Cl)c2Cl)O1 (stereo not shown) [Compound 8],12.81
2,Nc1ccc(C2OC(=O)CC2C(=O)OCCC(F)=C(F)F)cc1 (stereo not shown) [Compound 60],8.40
3,CCOc1ccc(C2OC(=O)CC2C(=O)OCCC(F)=C(F)F)cc1 (stereo not shown) [Compound 44],10.23
4,O=C1CC(C(=O)OCCC=C(F)F)C(c2cc(C(F)(F)F)cc(C(F)(F)F)c2)O1 (stereo not shown) [Compound 47],11.41
5,COc1ccccc1C1OC(=O)CC1C(=O)OCCC(F)=C(F)F (stereo not shown) [Compound 35],10.84
6,O=C1CC(C(=O)OCCC(F)=C(F)F)C(c2ccc(OCc3ccc(F)cc3)cc2)O1 (stereo not shown) [Compound 56],11.56
7,O=C1CC(C(=O)OCCC(F)=C(F)F)C(c2c(F)c(F)c(F)c(F)c2F)O1 (stereo not shown) [Compound 29],12.24
8,O=C1CC(C(=O)OCCC(F)=C(F)F)C(c2ccc(C(F)(F)F)cc2F)O1 (stereo not shown) [Compound 32],12.14
9,O=C1CC(C(=O)OCCC(F)=C(F)F)C(c2ccccc2C(F)(F)F)O1 (stereo not shown) [Compound 46],9.98
10,O=C1CC(C(=O)OCCC=C(F)F)C(c2ccccc2C(F)(F)F)O1 (stereo not shown) [Compound 45],10.14
11,COc1c(F)cc(C2OC(=O)CC2C(=O)OCCC(F)=C(F)F)cc1F (stereo not shown) [Compound 33],12.08

# Tested on: Nematode J2
# Test: Plant pathogenic nematode inhibition test by dipping: second-stage juveniles
# Assay type: in vivo
# Settings: Test object: nematode J2 (second-stage juveniles); dipping
row,SMILES,LC50 [µg/mL]
1,O=C1CC(C(=O)OCCC(F)=C(F)F)C(c2ccc(Br)cc2F)O1 (stereo not shown) [Compound 25],15.74
2,Cc1ccc(C2OC(=O)CC2C(=O)OCCC=C(F)F)cc1 (stereo not shown) [Compound 3],10.23

# Same assay, conditions: in vivo
row,SMILES,LC50 [µg/mL]
1,O=C1CC(C(=O)OCCC(F)=C(F)F)C(c2cccc(Cl)c2Cl)O1 (stereo not shown) [Compound 8],13.14
2,Nc1ccc(C2OC(=O)CC2C(=O)OCCC(F)=C(F)F)cc1 (stereo not shown) [Compound 60],10.06
3,CCOc1ccc(C2OC(=O)CC2C(=O)OCCC(F)=C(F)F)cc1 (stereo not shown) [Compound 44],13.12
4,O=C1CC(C(=O)OCCC=C(F)F)C(c2cc(C(F)(F)F)cc(C(F)(F)F)c2)O1 (stereo not shown) [Compound 47],12.24
5,COc1ccccc1C1OC(=O)CC1C(=O)OCCC(F)=C(F)F (stereo not shown) [Compound 35],11.67
6,O=C1CC(C(=O)OCCC(F)=C(F)F)C(c2ccc(OCc3ccc(F)cc3)cc2)O1 (stereo not shown) [Compound 56],13.47
7,O=C1CC(C(=O)OCCC(F)=C(F)F)C(c2c(F)c(F)c(F)c(F)c2F)O1 (stereo not shown) [Compound 29],13.86
8,O=C1CC(C(=O)OCCC(F)=C(F)F)C(c2ccc(C(F)(F)F)cc2F)O1 (stereo not shown) [Compound 32],13.23
9,O=C1CC(C(=O)OCCC(F)=C(F)F)C(c2ccccc2C(F)(F)F)O1 (stereo not shown) [Compound 46],11.24
10,O=C1CC(C(=O)OCCC=C(F)F)C(c2ccccc2C(F)(F)F)O1 (stereo not shown) [Compound 45],12.35
11,COc1c(F)cc(C2OC(=O)CC2C(=O)OCCC(F)=C(F)F)cc1F (stereo not shown) [Compound 33],13.37

# Tested on: Earthworm
# Test: Earthworm toxicity test (Test Guidelines on Environmental Safety Assessment for Chemical Pesticides)
# Assay type: in vivo
# Settings: cell adds 'low toxicity'
# Protocol: (§1) According to the earthworm and edaphon toxicity test procedures as prescribed in the Test Guidelines on Environmental Safety Assessment for Chemical Pesticides, earthworm and edaphon toxicity tests are conducted on compounds 1 to 60 from Table 1. The simulative usual dose of pesticide in the edaphon test is 40 ppm.
row,SMILES,Earthworm Toxicity LC50 (14 d)
1,O=C1CC(C(=O)OCCC(F)=C(F)F)C(c2cccc(Cl)c2Cl)O1 (stereo not shown) [Compound 8],">10, low toxicity mg/L"
2,Nc1ccc(C2OC(=O)CC2C(=O)OCCC(F)=C(F)F)cc1 (stereo not shown) [Compound 60],">10, low toxicity mg/L"
3,CCOc1ccc(C2OC(=O)CC2C(=O)OCCC(F)=C(F)F)cc1 (stereo not shown) [Compound 44],">10, low toxicity mg/L"
4,O=C1CC(C(=O)OCCC=C(F)F)C(c2cc(C(F)(F)F)cc(C(F)(F)F)c2)O1 (stereo not shown) [Compound 47],">10, low toxicity mg/L"
5,COc1ccccc1C1OC(=O)CC1C(=O)OCCC(F)=C(F)F (stereo not shown) [Compound 35],">10, low toxicity mg/L"
6,O=C1CC(C(=O)OCCC(F)=C(F)F)C(c2ccc(OCc3ccc(F)cc3)cc2)O1 (stereo not shown) [Compound 56],">10, low toxicity mg/L"
7,O=C1CC(C(=O)OCCC(F)=C(F)F)C(c2c(F)c(F)c(F)c(F)c2F)O1 (stereo not shown) [Compound 29],">10, low toxicity mg/L"
8,O=C1CC(C(=O)OCCC(F)=C(F)F)C(c2ccc(C(F)(F)F)cc2F)O1 (stereo not shown) [Compound 32],">10, low toxicity mg/L"
9,O=C1CC(C(=O)OCCC(F)=C(F)F)C(c2ccccc2C(F)(F)F)O1 (stereo not shown) [Compound 46],">10, low toxicity mg/L"
10,O=C1CC(C(=O)OCCC=C(F)F)C(c2ccccc2C(F)(F)F)O1 (stereo not shown) [Compound 45],">10, low toxicity mg/L"
11,COc1c(F)cc(C2OC(=O)CC2C(=O)OCCC(F)=C(F)F)cc1F (stereo not shown) [Compound 33],">10, low toxicity mg/L"
12,O=C1CC(C(=O)OCCC(F)=C(F)F)C(c2ccc(Br)cc2F)O1 (stereo not shown) [Compound 25],">10, low toxicity mg/L"
13,Cc1ccc(C2OC(=O)CC2C(=O)OCCC=C(F)F)cc1 (stereo not shown) [Compound 3],">10, low toxicity mg/L"

# Tested on: Edaphon
# Test: Edaphon toxicity test (Test Guidelines on Environmental Safety Assessment for Chemical Pesticides)
# Settings: 15 d; 100 times of usual dose (simulative usual dose 40 ppm); cell adds 'low toxicity'
# Protocol: as §1
row,SMILES,Edaphon Toxicity (15 d) (Inhibition ratio when added amount is 100 times of usual dose)
1,O=C1CC(C(=O)OCCC(F)=C(F)F)C(c2cccc(Cl)c2Cl)O1 (stereo not shown) [Compound 8],"<50%, low toxicity"
2,Nc1ccc(C2OC(=O)CC2C(=O)OCCC(F)=C(F)F)cc1 (stereo not shown) [Compound 60],"<50%, low toxicity"
3,CCOc1ccc(C2OC(=O)CC2C(=O)OCCC(F)=C(F)F)cc1 (stereo not shown) [Compound 44],"<50%, low toxicity"
4,O=C1CC(C(=O)OCCC=C(F)F)C(c2cc(C(F)(F)F)cc(C(F)(F)F)c2)O1 (stereo not shown) [Compound 47],"<50%, low toxicity"
5,COc1ccccc1C1OC(=O)CC1C(=O)OCCC(F)=C(F)F (stereo not shown) [Compound 35],"<50%, low toxicity"
6,O=C1CC(C(=O)OCCC(F)=C(F)F)C(c2ccc(OCc3ccc(F)cc3)cc2)O1 (stereo not shown) [Compound 56],"<50%, low toxicity"
7,O=C1CC(C(=O)OCCC(F)=C(F)F)C(c2c(F)c(F)c(F)c(F)c2F)O1 (stereo not shown) [Compound 29],"<50%, low toxicity"
8,O=C1CC(C(=O)OCCC(F)=C(F)F)C(c2ccc(C(F)(F)F)cc2F)O1 (stereo not shown) [Compound 32],"<50%, low toxicity"
9,O=C1CC(C(=O)OCCC(F)=C(F)F)C(c2ccccc2C(F)(F)F)O1 (stereo not shown) [Compound 46],"<50%, low toxicity"
10,O=C1CC(C(=O)OCCC=C(F)F)C(c2ccccc2C(F)(F)F)O1 (stereo not shown) [Compound 45],"<50%, low toxicity"
11,COc1c(F)cc(C2OC(=O)CC2C(=O)OCCC(F)=C(F)F)cc1F (stereo not shown) [Compound 33],"<50%, low toxicity"
12,O=C1CC(C(=O)OCCC(F)=C(F)F)C(c2ccc(Br)cc2F)O1 (stereo not shown) [Compound 25],"<50%, low toxicity"
13,Cc1ccc(C2OC(=O)CC2C(=O)OCCC=C(F)F)cc1 (stereo not shown) [Compound 3],"<50%, low toxicity"
